The target in one assay is T1, RORγ-LBD (Homo sapiens, UniProt P51449).
T1 construct: made in house; host or cells: SF9 cells (baculovirus); used as diluted lysate
T1 sequence (P51449 269-508 limits assumed): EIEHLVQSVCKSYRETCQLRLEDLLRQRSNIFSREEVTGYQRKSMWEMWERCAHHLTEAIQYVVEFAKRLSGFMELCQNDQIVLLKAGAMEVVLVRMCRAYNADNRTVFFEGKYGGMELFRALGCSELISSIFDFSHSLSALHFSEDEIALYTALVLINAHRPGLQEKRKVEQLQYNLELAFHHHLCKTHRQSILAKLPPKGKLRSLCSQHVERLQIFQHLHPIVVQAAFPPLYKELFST
Description: RORγ-Ligand Binding Domain (LBD) TR-FRET Assay. In kind it is biochemical. The following applies: RORγ-LBD TR-FRET. In short, it runs like this:
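Compounds, diluted in DMSO and then in assay buffer (1% DMSO final), were combined with His-tagged RORγ-LBD lysate at roughly 3 nM final and a 200 nM biotinylated SRC1 LXXLL peptide. Ursolic acid was included at 2 μM final. Coactivator recruitment was detected by TR-FRET.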
On the technique in general: Time-resolved FRET reads energy transfer from a long-lived donor to a nearby acceptor.

Another assay deals with T2, Gal4-RORγ-LBD (Homo sapiens, UniProt P51449).
T2 construct: expressed in transfected cells
T2 sequence (P51449 269-508 limits assumed): T1 sequence (P51449 269-508 limits assumed)
Briefly: Gal4-RORγ Luciferase Reporter Assay in HEK-293T Cells. The class given is cell-based. The following applies: HEK-293 cells, luciferase reporter, with ursolic acid. Summed up:
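Max Response was taken as the upper plateau of a 4-parameter logistic fit of luciferase signal, normalized to 100 for wells without ursolic acid or compound. Transiently Gal4-RORγ-LBD/Gal4-luc transfected HEK-293 cells carrying […] ursolic acid were incubated with test compounds (0.2% DMSO) overnight at 37 °C and read with One-Glo.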

With `CCOc1nn(CC)cc1S(=O)(=O)N1C[C@H](CCC(=O)OC)Oc2ccc(/C=C/c3c(Cl)cccc3C(F)(F)F)cc21` [Example 89DP, methyl (S,E)-3-(6-(2-chloro-6-(trifluoromethyl)styryl)-4-((3-ethoxy-1-ethyl-1H-pyrazol-4-yl)sulfonyl)-3,4-dihydro-2H-benzo[b][1,4]oxazin-2-yl)propanoate], the half-maximal effective concentration (EC50) on RORγ-LBD and at Gal4-RORγ-LBD was below 500 nM throughout.
`O=C(O)CC[C@H]1CN(S(=O)(=O)c2cccc(OC(F)F)c2)c2cc(/C=C/c3c(Cl)cccc3C(F)(F)F)ccc2O1` [Example 89DQ, (S,E)-3-(6-(2-chloro-6-(trifluoromethyl)styryl)-4-((3-(difluoromethoxy)phenyl)sulfonyl)-3,4-dihydro-2H-benzo[b][1,4]oxazin-2-yl)propanoic acid]: the 50% effective concentration (EC50) at RORγ-LBD and on Gal4-RORγ-LBD was below 500 nM throughout.
In the case of `O=C(O)CC[C@H]1CN(S(=O)(=O)c2cccc(OC(F)F)c2)c2cc(/C=C/c3ncccc3Cl)ccc2O1` [Example 89DT, (S,E)-3-(6-(2-(3-chloropyridin-2-yl)vinyl)-4-((3-(difluoromethoxy)phenyl)sulfonyl)-3,4-dihydro-2H-benzo[b][1,4]-oxazin-2-yl)propanoic acid], the values for the EC50 at RORγ-LBD and at Gal4-RORγ-LBD were below 500 nM and 500 to 5000 nM, respectively.
The corresponding values for `CCOc1ncc(C(F)(F)F)cc1S(=O)(=O)N1C[C@H](CCC(=O)O)Oc2ccc(/C=C/c3c(F)cccc3Cl)cc21` [Example 89DU, (S,E)-3-(6-(2-chloro-6-fluorostyryl)-4-((2-ethoxy-5-(trifluoromethyl)pyridin-3-yl)sulfonyl)-3,4-dihydro-2H-benzo[b][1,4]oxazin-2-yl)propanoic acid] are below 500 nM and 500 to 5000 nM.
With `CCOc1ncc(C(F)(F)F)cc1S(=O)(=O)N1C[C@H](CCC(=O)OC)Oc2ccc(/C=C/c3c(F)cccc3Cl)cc21` [Example 89DV, methyl (S,E)-3-(6-(2-chloro-6-fluorostyryl)-4-((2-ethoxy-5-(trifluoromethyl)pyridin-3-yl)sulfonyl)-3,4-dihydro-2H-benzo[b][1,4]oxazin-2-yl)propanoate], the EC50 was below 500 nM on RORγ-LBD and 500 to 5000 nM on Gal4-RORγ-LBD.
For the compound `CCc1nc(S(=O)(=O)N2C[C@H](CCC(=O)O)Oc3ccc(/C=C/c4c(F)cccc4Cl)cc32)c[nH]1` [Example 89DW, (S,E)-3-(6-(2-chloro-6-fluorostyryl)-4-((2-ethyl-1H-imidazol-4-yl)sulfonyl)-3,4-dihydro-2H-benzo[b][1,4]-oxazin-2-yl)propanoic acid], the EC50 on RORγ-LBD and at Gal4-RORγ-LBD was above 10000 nM throughout.
In the case of `Cc1nn(C)c2ncc(S(=O)(=O)N3C[C@H](CCC(=O)O)Oc4ccc(/C=C/c5c(F)cccc5Cl)cc43)cc12` [Example 89DX, (S,E)-3-(6-(2-chloro-6-fluorostyryl)-4-((1,3-dimethyl-1H-pyrazolo[3,4-b]pyridin-5-yl)sulfonyl)-3,4-dihydro-2H-benzo[b][1,4]oxazin-2-yl)propanoic acid], the values for the EC50 at RORγ-LBD and on Gal4-RORγ-LBD were 500 to 5000 nM and above 10000 nM, respectively.
For `CC(C)n1cnc(S(=O)(=O)N2C[C@H](CCC(=O)O)Oc3ccc(/C=C/c4c(F)cccc4Cl)cc32)c1` [Example 89DY, (S,E)-3-(6-(2-chloro-6-fluorostyryl)-4-((1-isopropyl-1H-imidazol-4-yl)sulfonyl)-3,4-dihydro-2H-benzo[b][1,4]-oxazin-2-yl)propanoic acid] the same measures were below 500 nM and 500 to 5000 nM.
The corresponding values for `Cn1cnc(S(=O)(=O)N2C[C@H](CCC(=O)O)Oc3ccc(/C=C/c4c(F)cccc4Cl)cc32)c1Cl` [Example 89DZ, (S,E)-3-(4-((5-chloro-1-methyl-1H-imidazol-4-yl)sulfonyl)-6-(2-chloro-6-fluorostyryl)-3,4-dihydro-2H-benzo[b][1,4]-oxazin-2-yl)propanoic acid] are 500 to 5000 nM and above 10000 nM.
For `CCOc1nn(CC)cc1S(=O)(=O)N1C[C@H](CCC(=O)O)Oc2ccc(/C=C/c3ccccn3)cc21` [Example 89E, (S,E)-3-(4-((3-ethoxy-1-ethyl-1H-pyrazol-4-yl)sulfonyl)-6-(2-(pyridin-2-yl)vinyl)-3,4-dihydro-2H-benzo[b][1,4]oxazin-2-yl)propanoic acid] the same measures were above 10000 nM and above 10000 nM.
As for `CCn1cc(S(=O)(=O)N2C[C@H](CCC(=O)O)Oc3ccc(/C=C/c4c(Cl)cccc4C(F)(F)F)cc32)c(OCCO)n1` [Example 89EA, (S,E)-3-(6-(2-chloro-6-(trifluoromethyl)styryl)-4-((1-ethyl-3-(2-hydroxyethoxy)-1H-pyrazol-4-yl)sulfonyl)-3,4-dihydro-2H-benzo[b][1,4]oxazin-2-yl)propanoic acid], the EC50 on RORγ-LBD and on Gal4-RORγ-LBD was below 500 nM throughout.
Take `COC(=O)CC[C@H]1CN(S(=O)(=O)c2cc(C(F)(F)F)cnc2OCCO)c2cc(/C=C/c3c(F)cccc3Cl)ccc2O1` [Example 89EB, methyl (S,E)-3-(6-(2-chloro-6-fluorostyryl)-4-((2-(2-hydroxyethoxy)-5-(trifluoromethyl)-pyridin-3-yl)sulfonyl)-3,4-dihydro-2H-benzo[b][1,4]oxazin-2-yl)propanoate]: the EC50 at RORγ-LBD and at Gal4-RORγ-LBD was below 500 nM each time.
In the case of `O=C(O)CC[C@H]1CN(S(=O)(=O)c2cc(C(F)(F)F)cnc2OCCO)c2cc(/C=C/c3c(F)cccc3Cl)ccc2O1` [Example 89EC, (S,E)-3-(6-(2-chloro-6-fluorostyryl)-4-((2-(2-hydroxyethoxy)-5-(trifluoromethyl)-pyridin-3-yl)sulfonyl)-3,4-dihydro-2H-benzo[b][1,4]oxazin-2-yl)propanoic acid], the results for the EC50 on RORγ-LBD and at Gal4-RORγ-LBD were below 500 nM and 500 to 5000 nM, respectively.
For `CC(C)n1cc(S(=O)(=O)N2C[C@H](CCC(=O)O)Oc3ccc(/C=C/c4c(Cl)cccc4C(F)(F)F)cc32)c(OCCO)n1` [Example 89ED, (S,E)-3-(6-(2-chloro-6-(trifluoromethyl)styryl)-4-((3-(2-hydroxyethoxy)-1-isopropyl-1H-pyrazol-4-yl)sulfonyl)-3,4-dihydro-2H-benzo[b][1,4]oxazin-2-yl)propanoic acid] the same measures were below 500 nM and below 500 nM.
The corresponding values for `CCOc1nn(CC)cc1S(=O)(=O)N1C[C@H](CCC(=O)O)Oc2ccc(/C=C/c3ncccc3Cl)cc21` [Example 89EE, (S,E)-3-(6-(2-(3-chloropyridin-2-yl)vinyl)-4-((3-ethoxy-1-ethyl-1H-pyrazol-4-yl)sulfonyl)-3,4-dihydro-2H-benzo[b][1,4]oxazin-2-yl)propanoic acid] are below 500 nM and 500 to 5000 nM.
As to `O=C(O)CC[C@H]1CN(S(=O)(=O)c2cn(CC(F)F)nc2OCCO)c2cc(/C=C/c3c(Cl)cccc3C(F)(F)F)ccc2O1` [Example 89EF, (S,E)-3-(6-(2-chloro-6-(trifluoromethyl)styryl)-4-((1-(2,2-difluoroethyl)-3-(2-hydroxyethoxy)-1H-pyrazol-4-yl)sulfonyl)-3,4-dihydro-2H-benzo[b][1,4]oxazin-2-yl)propanoic acid], the EC50 at RORγ-LBD and on Gal4-RORγ-LBD was below 500 nM each time.
For `O=C(O)CC[C@H]1CN(S(=O)(=O)c2cn(C3CC3)nc2OCCO)c2cc(/C=C/c3c(Cl)cccc3C(F)(F)F)ccc2O1` [Example 89EG, (S,E)-3-(6-(2-chloro-6-(trifluoromethyl)styryl)-4-((1-cyclopropyl-3-(2-hydroxyethoxy)-1H-pyrazol-4-yl)sulfonyl)-3,4-dihydro-2H-benzo[b][1,4]oxazin-2-yl)propanoic acid], the EC50 was below 500 nM on RORγ-LBD and 500 to 5000 nM at Gal4-RORγ-LBD.
Take `CCOc1nn(CC)cc1S(=O)(=O)N1C[C@H](CCC(=O)O)Oc2ccc(/C=C/c3c(Cl)cccc3C(F)F)cc21` [Example 89EH, (S,E)-3-(6-(2-chloro-6-(difluoromethyl)styryl)-4-((3-ethoxy-1-ethyl-1H-pyrazol-4-yl)sulfonyl)-3,4-dihydro-2H-benzo[b][1,4]oxazin-2-yl)propanoic acid]: the EC50 on RORγ-LBD and on Gal4-RORγ-LBD was below 500 nM each time.
With `CCOc1nn(CC)cc1S(=O)(=O)N1C[C@H](CCC(=O)OC)Oc2ccc(/C=C/c3c(Cl)cccc3C(F)F)cc21` [Example 89EI, methyl (S,E)-3-(6-(2-chloro-6-(difluoromethyl)styryl)-4-((3-ethoxy-1-ethyl-1H-pyrazol-4-yl)sulfonyl)-3,4-dihydro-2H-benzo[b][1,4]oxazin-2-yl)propanoate], the EC50 on RORγ-LBD and on Gal4-RORγ-LBD was below 500 nM each time.
Take `CCOc1ncc(C(F)(F)F)cc1S(=O)(=O)N1C[C@H](CCC(=O)O)Oc2ccc(/C=C/c3c(Cl)cccc3C(F)F)cc21` [Example 89EJ, (S,E)-3-(6-(2-chloro-6-(difluoromethyl)styryl)-4-((2-ethoxy-5-(trifluoromethyl)-pyridin-3-yl)sulfonyl)-3,4-dihydro-2H-benzo[b][1,4]-oxazin-2-yl)propanoic acid]: the EC50 on RORγ-LBD and on Gal4-RORγ-LBD was below 500 nM in each case.

The EC50 is the concentration at which the effect is half-maximal. Low values mean greater potency, high ones weaker potency.

(Values after patent US9896441B2 (Lycera Corporation, priority 2014, dated 2018).)
